Measurements taken from article PMC12693701, “Glucosinolate-Derived Metabolites from Barbarea vulgaris (Brassicaceae): Evaluation of Antimicrobial, Antioxidant, and Anti-Inflammatory Potentials” (Molecules, 2025).
Converted amounts (≈) assume the structure as drawn. Like-named read-outs stand apart in the source and are kept apart here.

Legend:
[1] = DPPH radical scavenging assay; conditions: mean ± SD
Protocol: The DPPH assay was used to assess the ability of the tested compounds to scavenge reactive radical species. Stock solutions of the investigated compounds were prepared in DMSO and then diluted with methanol to a final volume of 1000 µL. An equal volume of a 50 µM DPPH solution in methanol was then added to the prepared mixture. The final concentrations of the test compounds were 25, 50, and 100 µM. After thorough mixing, the samples were incubated in the dark at room temperature for 20 to 60 min. Methanol was used as a blank, and absorbance was measured at 517 nm after incubation. All measurements were performed in triplicate.

[2] = biological target: T1, Type I-B soybean lipoxygenase (Glycine max, UniProt P08170); experiment: LOX inhibition assay; format: biochemical; conditions: for inhibition at 100 µM: read-out: Percentage of LOX Inhibition
T1 sequence (P08170 1-839): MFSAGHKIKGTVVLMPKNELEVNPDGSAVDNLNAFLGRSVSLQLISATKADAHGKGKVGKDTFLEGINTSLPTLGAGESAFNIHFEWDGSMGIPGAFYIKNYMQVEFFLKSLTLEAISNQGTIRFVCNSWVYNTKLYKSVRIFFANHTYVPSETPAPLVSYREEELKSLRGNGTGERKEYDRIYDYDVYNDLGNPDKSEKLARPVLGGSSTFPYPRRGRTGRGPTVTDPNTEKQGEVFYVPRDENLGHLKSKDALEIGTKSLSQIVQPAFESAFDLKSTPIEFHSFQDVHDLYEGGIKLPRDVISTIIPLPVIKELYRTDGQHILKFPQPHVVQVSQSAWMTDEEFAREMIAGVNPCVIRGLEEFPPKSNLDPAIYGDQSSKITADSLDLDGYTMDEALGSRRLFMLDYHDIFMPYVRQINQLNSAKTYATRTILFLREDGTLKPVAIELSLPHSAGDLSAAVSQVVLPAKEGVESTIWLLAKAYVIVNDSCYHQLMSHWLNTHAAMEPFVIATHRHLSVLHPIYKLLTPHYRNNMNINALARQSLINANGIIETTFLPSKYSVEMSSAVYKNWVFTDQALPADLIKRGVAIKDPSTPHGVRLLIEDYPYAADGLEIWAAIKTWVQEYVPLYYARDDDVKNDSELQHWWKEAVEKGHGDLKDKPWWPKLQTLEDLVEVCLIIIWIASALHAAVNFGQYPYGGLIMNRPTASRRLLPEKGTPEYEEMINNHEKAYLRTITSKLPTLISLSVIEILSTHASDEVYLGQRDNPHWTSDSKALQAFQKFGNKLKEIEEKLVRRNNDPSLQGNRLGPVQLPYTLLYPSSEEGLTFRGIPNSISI
Protocol: Type I-B soybean lipoxygenase is a commonly used enzyme for studying the anti-inflammatory properties of various compounds [19]. The lipoxygenase (LOX) inhibition assay measures the enzyme’s ability to convert sodium linoleate to 13-hydroperoxylinoleic acid. The inhibition of the enzyme by the investigated compounds was determined by measuring the absorbance at 234 nm for each prepared sample. Specifically, the test compound, Tris buffer, an enzyme solution (5 × 10^3 units/mL in saline), and sodium linoleate (3 mM in Tris buffer, pH 9), were added to a UV cuvette, and the absorbance was recorded. […] All measurements were performed in triplicate.

T. viride ATCC 13233 = experiment: Microdilution MIC/MMC; format: cell-based, Trichoderma viride
Protocol: (§1) The antimicrobial activity was evaluated against 15 microorganisms. This included 11 bacterial strains: four standard strains (Staphylococcus aureus ATCC 25923, Bacillus subtilis ATCC 6633, Bacillus pumilus NCTC 8241, and Escherichia coli ATCC 25922) and six clinical or environmental isolates (Staphylococcus aureus, Escherichia coli, Bacillus cereus, Proteus mirabilis, Salmonella enterica, and Klebsiella pneumoniae). One probiotic strain, Bifidobacterium animalis subsp. lactis was tested. In addition, four fungal strains, Candida albicans ATCC 10231, Trichoderma viride ATCC 13233, Aspergillus flavus ATCC 9170, and Fusarium solani ATCC 11712 were tested. The bacterial strains were kept in glycerol stock at −80 °C and the fungal strains in paraffin oil stock at 4 °C.
(§2) Bacterial and yeast suspensions were prepared using the direct colony method, as previously described by Andrews. The turbidity of the initial suspensions was adjusted to match the 0.5 McFarland standard using a densitometer (Biosan, Riga, Latvia), corresponding to approximately 10^8 colony-forming units (CFU)/mL for bacterial cells and 10^6 CFU/mL for yeast cells. Subsequently, 1:100 dilutions of the initial suspensions were prepared in sterile 0.85% saline. Fungal spore suspensions were obtained by gently harvesting spores from agar slopes containing mature mycelial growth. The collected spore suspensions were then diluted 1:1000 in sterile 0.85% saline prior to use.
(§3) Antimicrobial activity was evaluated by determining the minimum inhibitory concentration (MIC) and minimum microbicidal concentration (MMC) using the microdilution plate method with resazurin as an indicator [28]. In the 96-well plates, 100 μL of Mueller–Hinton broth (Torlak, Belgrade, Serbia) for bacterial testing and Sabouraud broth (Torlak, Belgrade, Serbia) for fungal testing were dispensed into each well. The compounds under investigation were initially dissolved in a 10% dimethyl sulfoxide (DMSO) solution, followed by dilution in sterile distilled water, resulting in a working compound solution containing 1% DMSO. A 100 μL aliquot of the stock solution of the tested compound was added to the first row, and twofold serial dilutions were then carried out using a multichannel pipette. The resulting concentration range was from 5 to 0.039 mg/mL. The inoculated microtiter plates were incubated at 37 °C for 24 h for bacteria, at 28 °C for 48 h for yeasts, and at 28 °C for 72 h for molds.
(§4) Each test also included growth control and sterility control. All tests were conducted in duplicate. MIC was defined as the lowest concentration of tested compounds that prevented resazurin color change from blue to pink. For molds, MIC values of the tested compound were determined as the lowest concentration that inhibited visible mycelia growth. MMC was determined by inoculation of the nutrient agar medium by plating […] of samples from wells, where no indicator color change was recorded. At the end of the incubation period, the lowest concentration with no growth (no colony) was defined as MMC.
(§5) Doxycycline, ampicillin and amphotericin B (- Sigma-Aldrich, St. Louis, MO, USA) and ketoconazole (Hemofarm A.D., Vršac, Serbia) were dissolved in a nutrient liquid medium. Doxycycline is a broad-spectrum antibiotic effective against both aerobic and anaerobic Gram-positive and Gram-negative bacteria. Ampicillin, a beta-lactam antibiotic, primarily targets Gram-positive bacteria but also some Gram-negative strains. Amphotericin B is an antifungal drug often used for serious systemic fungal infections and is one of the effective treatments for fungal infections caused by Aspergillus sp. Ketoconazole is an antifungal agent used to inhibit the growth of Candida species.

A. flavus ATCC 9170 = experiment: Microdilution MIC/MMC; format: cell-based, Aspergillus flavus
Protocol: as §1, §2, §3, §4, §5

[3] = T. viride ATCC 13233, compounds 1–8
[4] = Trichoderma viride, ATCC13233, T. viride ATCC 13233, compounds 1–8, read-out: MIC
[5] = A. flavus ATCC 9170, compounds 1–8
[6] = Aspergillus flavus, ATCC9170, A. flavus ATCC 9170, compounds 1–8, read-out: MIC

| SMILES | DPPH Scavenging Ability ([1]; 25 µM, 20 min) [%] | DPPH Scavenging Ability ([1]; 25 µM, 60 min) [%] | DPPH Scavenging Ability ([1]; 50 µM, 20 min) [%] | DPPH Scavenging Ability ([1]; 50 µM, 60 min) [%] | DPPH Scavenging Ability ([1]; 100 µM, 20 min) [%] | DPPH Scavenging Ability ([1]; 100 µM, 60 min) [%] | inhibition at 100 µM ([2]; 100 µM, mean ± SD) [%] | MMC (T. viride ATCC 13233; [3]) [mg/mL] | MIC (T. viride ATCC 13233; [4]) [µg/mL] | MMC (A. flavus ATCC 9170; [5]) [mg/mL] | MIC (A. flavus ATCC 9170; [6]) [µg/mL] | IC50 ([2]; mean ± SD) [µM] | inhibition at 100 µM [2] [%] | MIC (T. viride ATCC 13233; [3]) [µg/mL] | MIC (T. viride ATCC 13233; Trichoderma viride, ATCC13233) [µg/mL] | MIC (A. flavus ATCC 9170; [5]) [µg/mL] | MIC (A. flavus ATCC 9170; Aspergillus flavus, ATCC9170) [µg/mL] |
| --- | --- | --- | --- | --- | --- | --- | --- | --- | --- | --- | --- | --- | --- | --- | --- | --- | --- |
| O=C1NCC(c2ccccc2)O1 (stereo not shown) [Compound 7, 5-Phenyl-1,3-oxazolidin-2-one] | 1.1 ± 0.4 | 0.9 ± 0.7 | 1.5 ± 0.9 | 1.5 ± 0.8 | 2.6 ± 1.0 | 2.7 ± 1.5 | 18.3 ± 0.3 | 2.5 | 1250 (≈ 7.66 mM) | 2.5 | 2500 (≈ 15.3 mM) | – | – | – | – | – | – |
| CSC(=S)NCCc1ccccc1 [Compound 1, Methyl phenethylcarbamodithioate] | 1.6 ± 1.2 | 1.8 ± 1.5 | 2.5 ± 1.1 | 2.4 ± 1.4 | 2.6 ± 1.2 | 2.9 ± 1.7 | 47.5 ± 1.5 | 1.25 | 625 (≈ 2.96 mM) | 2.5 | 1250 (≈ 5.91 mM) | 125.5 ± 0.4 | – | – | – | – | – |
| S=C1NC[C@H](c2ccccc2)O1 [Compound 5, (S)-5-phenyl-1,3-oxazolidine-2-thione] | 7.0 ± 0.9 | 8.4 ± 0.5 | 14.8 ± 0.7 | 16.4 ± 0.4 | 21.6 ± 1.2 | 22.4 ± 0.7 | 40 ± 0.5 | 5 | 5000 (≈ 27.9 mM) | >5 | > 5000 | 123 ± 1.5 | – | – | – | – | – |
| CSC(=S)NCCc1ccc(O)cc1 [Compound 2, methyl-4-hydroxyphenylethyl dithiocarbamate] | 11.9 ± 0.7 | 12.0 ± 0.4 | 15.6 ± 0.3 | 15.7 ± 1.4 | 24.9 ± 1.1 | 25.2 ± 1.6 | 55.5 ± 0.1 | 0.312 | 156 (≈ 0.686 mM) | 0.625 | 312 (≈ 1.37 mM) | 97.4 ± 1.3 | – | – | – | – | – |
| Oc1ccc(CCN=C=S)cc1 [Compound 8, 2-(4-hydroxyphenyl)ethyl isothiocyanate] | 4.4 ± 1.0 | 4.7 ± 1.2 | 7.3 ± 1.3 | 8.1 ± 1.3 | 13.1 ± 0.7 | 14.2 ± 0.9 | – | <0.039 | – | <0.039 | – | – | 21.2 ± 0.3 | <39 | < 39 | <39 | < 39 |
| O=C1NCC(c2ccccc2)S1 (stereo not shown) [Compound 6, 5-phenyl-1,3-thiazolidin-2-one] | 3.1 ± 0.6 | 3.0 ± 0.7 | 4.2 ± 0.8 | 4.6 ± 0.6 | 5.9 ± 0.9 | 5.8 ± 1.4 | 34.6 ± 0.4 | >5 | > 5000 | >5 | > 5000 | – | – | – | – | – | – |
| S=C1NCC(c2ccccc2)O1 (racemic) [Compound 4, rac-5-Phenyl-1,3-oxazolidine-2-thione] | 1.2 ± 0.7 | 1.3 ± 0.5 | 1.7 ± 0.8 | 2.0 ± 0.9 | 3.8 ± 1.2 | 3.5 ± 1.7 | 90.5 ± 0.1 | 2.5 | 2500 (≈ 13.9 mM) | >5 | > 5000 | 61.6 ± 0.6 | – | – | – | – | – |
| O=C(O)C1CSC(=S)N1 (stereo not shown) [Compound 3, 2-Thioxothiazolidine-4-carboxylic Acid] | 1.0 ± 0.3 | 1.1 ± 0.5 | 1.9 ± 0.8 | 2.1 ± 1.1 | 7.8 ± 1.8 | 7.9 ± 1.7 | 23.8 ± 0.8 | 5 | 2500 (≈ 15.3 mM) | 5 | 5000 (≈ 30.6 mM) | – | – | – | – | – | – |
